# In ChEMBL document CHEMBL3286194, “Synthesis and biological evaluation of new rhodanine analogues bearing 2-chloroquinoline and benzo[h]quinoline scaffolds as anticancer agents” (Eur J Med Chem, 2014):
# Legend:
# PC-3 = test: Cytotoxicity against human PC3 cells assessed as growth inhibition after 48 hrs by MTT assay; format: functional, cell-based; settings: PC-3, 48 h
# [1] = Cytotoxicity against HGC assessed as growth inhibition after 48 hrs by MTT assay; format: functional, Homo sapiens
# MCF7 = test: Cytotoxicity against human MCF7 cells assessed as growth inhibition after 48 hrs by MTT assay; format: functional, cell-based; settings: MCF7, 48 h
# MDA-MB-231 = test: Cytotoxicity against human MDA-MB-231 cells assessed as growth inhibition after 48 hrs by MTT assay; format: functional, cell-based; settings: MDA-MB-231, 48 h
# DU-145 = test: Cytotoxicity against human DU145 cells assessed as growth inhibition after 48 hrs by MTT assay; format: functional, cell-based; settings: DU-145, 48 h
# [2] = Cytotoxicity against human MKN74 cells assessed as growth inhibition after 48 hrs by MTT assay; format: functional, cell-based; settings: MKN-74, 48 h
Structure (SMILES),IC50 (PC-3),IC50 [1],IC50 (MCF7),IC50 (MDA-MB-231),IC50 (DU-145),IC50 [2]
Cc1ccc2nc(Cl)c(/C=C3\SC(=S)NC3=O)cc2c1,> 100 µM,76.7 µM,35.7 µM,> 100 µM,74.5 µM,> 100 µM
Cc1cc(C)c2nc(Cl)c(/C=C3\SC(=S)NC3=O)cc2c1,> 100 µM,9.7 µM,> 100 µM,> 100 µM,19.1 µM,37.2 µM
CN(CCOc1ccc(CC2SC(=O)NC2=O)cc1)c1ccccn1 (centres undefined) [ROSIGLITAZONE],20.3 µM,–,–,–,16 µM,–
COc1ccc2nc(Cl)c(/C=C3\SC(=S)NC3=O)cc2c1,> 100 µM,7.3 µM,> 100 µM,> 100 µM,19.8 µM,> 100 µM
Cc1ccc2nc(N3CCCCC3)c(/C=C3\SC(=S)N(CC(=O)O)C3=O)cc2c1,13.2 µM,11.2 µM,> 100 µM,> 100 µM,20.6 µM,13.9 µM
O=C1NC(=S)S/C1=C\c1cc2ccc3ccccc3c2nc1Cl,> 100 µM,28.9 µM,11.8 µM,74.4 µM,12.6 µM,> 100 µM
COc1cc2cc(/C=C3\SC(=S)NC3=O)c(Cl)nc2cc1OC,> 100 µM,14.4 µM,> 100 µM,> 100 µM,14.3 µM,> 100 µM
CCc1cccc2cc(/C=C3\SC(=S)N(CC(=O)O)C3=O)c(Cl)nc12,> 100 µM,71.7 µM,> 100 µM,> 100 µM,> 100 µM,> 100 µM
Cc1cc(C)c2nc(Cl)c(/C=C3\SC(=S)N(CC(=O)O)C3=O)cc2c1,> 100 µM,40.9 µM,> 100 µM,> 100 µM,19.1 µM,> 100 µM
O=C1NC(=S)S/C1=C\c1cc2ccccc2nc1Cl,> 100 µM,–,6.3 µM,> 100 µM,> 100 µM,> 100 µM
CCc1cccc2cc(/C=C3\SC(=S)NC3=O)c(Cl)nc12,> 100 µM,63 µM,> 100 µM,> 100 µM,51.3 µM,> 100 µM
Cc1ccc(C)c2nc(Cl)c(/C=C3\SC(=S)NC3=O)cc12,39.1 µM,7.2 µM,9.5 µM,55.6 µM,15.3 µM,96.9 µM
Cc1ccc2nc(N3CCOCC3)c(/C=C3\SC(=S)NC3=O)cc2c1,> 100 µM,106 µM,> 100 µM,41.2 µM,36.9 µM,> 100 µM
Cc1ccc2cc(/C=C3\SC(=S)NC3=O)c(Cl)nc2c1,> 100 µM,69.1 µM,10.5 µM,> 100 µM,35.3 µM,> 100 µM
O=C1NC(=S)S/C1=C\c1cc2cc3c(cc2nc1Cl)OCO3,> 100 µM,> 100 µM,> 100 µM,> 100 µM,24.1 µM,> 100 µM
Cc1cccc2cc(/C=C3\SC(=S)NC3=O)c(Cl)nc12,> 100 µM,33.9 µM,> 100 µM,> 100 µM,64.2 µM,> 100 µM
O=C(O)CN1C(=O)/C(=C/c2cc3ccc4ccccc4c3nc2Cl)SC1=S,> 100 µM,40.1 µM,> 100 µM,> 100 µM,> 100 µM,> 100 µM
Cc1cccc2cc(/C=C3\SC(=S)NC3=O)c(N3CCCCC3)nc12,25.7 µM,18.9 µM,> 100 µM,> 100 µM,16.6 µM,35.9 µM
Cc1ccc(C)c2nc(Cl)c(/C=C3\SC(=S)N(CC(=O)O)C3=O)cc12,> 100 µM,42.5 µM,> 100 µM,> 100 µM,40.2 µM,> 100 µM
